Assay results published in patent US10323027B2, “2,3-dihydro-4H-1,3-benzoxazin-4-one derivatives as modulators of cholinergic muscarinic M1 receptor” (Takeda Pharmaceutical Company Limited, priority 2015, dated 2019).
pEC50: −log10 of the molar value. Counter-ions that a name gives are not always drawn.

Tests used:
[1] = target: T1, human M1 receptor (hCHRM1) (Homo sapiens, UniProt P11229); experiment: Measurement of M1 receptor positive allosteric modulator (M1PAM) activity, Ca2+ fluorescence by FLIPRtetra (Experimental Example 1); type: cell-based; conditions: for activity (%) at 10 μM: 10 μM test compound, 100% = acetylcholine 1 μM, 0% = DMSO; for pEC50: inflection point of concentration-dependent curve, in presence of acetylcholine at EC20 (0.8-1.0 nM), CHO-K1 cells expressing hCHRM1, read-out: IP value
T1 construct: expressed in transfected cells
T1 sequence (P11229 1-460): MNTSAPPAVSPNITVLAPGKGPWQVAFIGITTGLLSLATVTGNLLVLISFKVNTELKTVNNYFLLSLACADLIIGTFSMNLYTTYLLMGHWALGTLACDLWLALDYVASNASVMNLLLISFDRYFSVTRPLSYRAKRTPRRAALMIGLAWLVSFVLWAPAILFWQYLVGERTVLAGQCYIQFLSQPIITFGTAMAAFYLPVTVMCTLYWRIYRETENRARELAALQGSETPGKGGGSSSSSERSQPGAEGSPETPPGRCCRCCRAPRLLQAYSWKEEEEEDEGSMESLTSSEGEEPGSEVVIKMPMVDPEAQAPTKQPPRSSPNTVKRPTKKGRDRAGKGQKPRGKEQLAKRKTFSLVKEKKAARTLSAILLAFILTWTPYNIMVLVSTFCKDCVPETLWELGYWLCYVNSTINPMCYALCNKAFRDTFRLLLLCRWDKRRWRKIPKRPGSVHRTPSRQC
Method in brief: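 CHO-K1 cells stably expressing hCHRM1, loaded with Fluo-4 AM (probenecid), received compound with acetylcholine at EC20 (final 0.8-1.0 nM); Ca2+ fluorescence read 1 min by FLIPRtetra. Activity scaled 0% (DMSO) to 100% (1 μM acetylcholine); IP from inflection point of concentration curve.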

[2] = test system: Myo-Inositol 1 Phosphate (IP1); experiment: Measurement of myo-inositol 1 phosphate (IP1) in rat hippocampi after oral administration (Experimental Example 3); type: in vivo, male Long-Evans rats; conditions: IP1 production (IP1/protein) in rat hippocampi; 10 mg/kg oral; relative to Vehicle administration group as 100%
Experimental: Measurement of Myo-Inositol 1 Phosphate (IP1)
Animals used were male Long-Evans rats. They were used after acclimation for at least 1 week. Test compounds were suspended in 0.5% (w/v) aqueous methylcellulose solution, and the suspension was orally administered to the rats. After a given time, lithium chloride dissolved in saline was subcutaneously administered into the rats. After a given time, their bilateral hippocampi were isolated from the rats, and the wet weight thereof was measured. The isolated hippocampi were homogenized with HEPES (registered trademark) buffer, followed by centrifugation. The IP1 and protein concentrations in the supernatant were measured by IP-One HTRF assay kit (Cisbio Bioassays) and BCA protein assay kit (Thermo Scientific), respectively. The level of the IP1 production was expressed as the ratio of the concentration of IP1 to that of protein. The increase rate of the IP1 production was shown as a relative value when Vehicle administration group as 100%.

[3] = test system: Scopolamine-induced memory deficits models; experiment: Novel object recognition test (Experimental Example 4); type: in vivo, male Long-Evans rats; conditions: scopolamine 0.1 mg/kg s.c., retention trial 4 hr after acquisition, mean±standard error
Experimental: Novel Object Recognition Test Novel object recognition test is comprised of two trials called the acquisition and the retention trials. Scopolamine-induced memory deficits models were used for the test, and animals used were male Long-Evans rats. On the day before the test, for acclimation, the rats were allowed to freely move about the test box (40×40×50 cm) for 10 minutes. On the test day, the rats were acclimated to the test room for about 1 hr prior to the test. The test compounds were orally administered to the rats in a single dose a given time before the acquisition trial. For induction of learning and memory deficits, scopolamine (0.1 mg/kg) was subcutaneously administered into the rats 30 min before the acquisition trial. For the acquisition trial, two identical objects (A1, A2) were placed in the test box. The rats were put in the test box for 3 min, and the duration exploring each object was measured. The retention trial was performed 4 hr after the acquisition trial. For the retention trial, one familiar object (A3) used for the acquisition trial and one novel object (B) having a different shape from A3 were placed in the test box. After setting the objects, the rats were introduced into the test box and retention trial was performed for 3 min. The duration for exploring each object in the acquisition trial and the retention trial was measured, and the exploration rate of novel object was calculated. The exploration rate of novel object was expressed as (the duration exploring the novel object)/[(the duration exploring the novel object)+(the duration exploring the familiar object)]×100(%) at mean±standard error.

[4] = target: T1, human M1 receptor (hCHRM1); experiment: Measurement of M1 receptor positive allosteric modulator (M1PAM) activity, Ca2+ fluorescence by FDSS/μ cell (Experimental Example 2); type: cell-based; conditions: for activity (%) at 10 μM: 10 μM test compound, 100% = acetylcholine 1 μM, 0% = DMSO; for pEC50: inflection point of concentration-dependent curve, in presence of acetylcholine at EC20 (0.8-1.0 nM), CHO-K1 cells expressing hCHRM1, read-out: IP value
Experimental: Measurement of M1 Receptor Positive Allosteric Modulator (M1PAM) Activity
The activity of a test compound in the presence of acetylcholine at EC20 concentration (final concentration 0.8-1.0 nM), which affords an action corresponding to about 20% of the maximum activity, was measured as PAM activity. The method is as follows. CHO-K1 cells stably expressing a human M1 receptor (hCHRM1) were plated on a 384-well black clear bottom plate (BD Falcon) at 5,000 cells/well, and cultured in an incubator at 37° C., 5% CO2 for 1 day. The medium in the cell plate was removed, and a dye solution (prepared by adding Recording medium (DOJINDO LABORATORIES) to a final concentration of 1×concentration, Fluo-4 AM (DOJINDO LABORATORIES) to a final concentration of 2.5 μg/mL, Pluronic F127 (DOJINDO LABORATORIES) to a final concentration of 0.08%, and probenecid (DOJINDO LABORATORIES) to a final concentration of 1.25 mM to assay buffer (HBSS (Invitrogen), 20 mM HEPES (Invitrogen), 0.1% BSA (Wako Pure Chemical Industries, Ltd.))) was added at 30 μL/well. The cells were left standing in the incubator at 37° C., 5% CO2 for 30 min, and further left standing at room temperature for 30 min. A test compound prepared by diluting with assay buffer containing 3.2-4.0 nM acetylcholine was added at 10 μL/well, and the fluorescence was measured by FDSS/μ cell (Hamamatsu Photonics K.K.) for 1 min every 1 second. With the definition that the amount of change in the fluorescence on addition of acetylcholine (final concentration 1 μM) is 100% and that on addition of DMSO instead of a test compound is 0%, the activity (%) of the test compound was calculated, and the inflection point in the concentration-dependent curve of the test compound was calculated as IP values.

Compound	activity (%) at 10 μM [1] [%]	pEC50 [1]	increase rate (%) at 10 mg/kg [2] [%]	exploration rate of novel object (%) ([3]; 1 mg/kg oral)	exploration rate of novel object (%) ([3]; 3 mg/kg oral)	activity (%) at 10 μM [4] [%]	pEC50 [4]
Cc1ccc(Cc2cc3c(cc2C)OCN([C@H]2CCCC[C@@H]2O)C3=O)cn1 (single isomer, unassigned) [Example 28, 3-(trans-2-hydroxycyclohexyl)-7-methyl-6-((6-methylpyridin-3-yl)methyl)-2,3-dihydro-4H-1,3-benzoxazin-4-one monohydrochloride (optical isomer)]	108	7.70	36				
Cc1c(Cc2ccc(-n3cccn3)nc2)cc2c(c1F)OCN([C@H]1CCC[C@@H]1O)C2=O [Example 13, 8-fluoro-3-((1S,2S)-2-hydroxycyclopentyl)-7-methyl-6-((6-(1H-pyrazol-1-yl)pyridin-3-yl)methyl)-2,3-dihydro-4H-1,3-benzoxazin-4-one]	88	8.22	102	60.2±3.0			
Cc1c(Cc2ccc(Cl)nc2)cc2c(c1Cl)OCN([C@H]1CCC[C@@H]1O)C2=O [Example 24, 8-chloro-6-((6-chloropyridin-3-yl)methyl)-3-((1S,2S)-2-hydroxycyclopentyl)-7-methyl-2,3-dihydro-4H-1,3-benzoxazin-4-one]	94	8.51	26		63.5±2.4		
Cc1cc2c(cc1Cc1ccc(-c3ccn(C)n3)cc1)C(=O)N([C@H]1COCC[C@@H]1O)CO2 [Example 104, 3-((3S,4S)-4-hydroxytetrahydro-2H-pyran-3-yl)-7-methyl-6-(4-(1-methyl-1H-pyrazol-3-yl)benzyl)-2,3-dihydro-4H-1,3-benzoxazin-4-one]			86		61.6±2.2	99	8.35
Cc1c(Cc2ccc(-n3cccn3)nc2)cc2c(c1Cl)OCN([C@H]1COCC[C@@H]1O)C2=O [Example 106, 1,5-anhydro-2-(8-chloro-7-methyl-4-oxo-6-((6-(1H-pyrazol-1-yl)pyridin-3-yl)methyl)-2H-1,3-benzoxazin-3(4H)-yl)-2,4-dideoxy-L-threo-pentitol]						113	8.16
CCc1cc2c(cc1Cc1ccc(-n3cccn3)cc1)C(=O)N([C@H]1COCC[C@@H]1O)CO2 [Example 107, 1,5-anhydro-2,4-dideoxy-2-(7-ethyl-4-oxo-6-(4-(1H-pyrazol-1-yl)benzyl)-2H-1,3-benzoxazin-3(4H)-yl)-L-threo-pentitol]						99	8.26
Cc1c(Cc2ccc(-c3ccn(C)n3)cc2)cc2c(c1F)OCN([C@H]1COCC[C@@H]1O)C2=O [Example 108, 1,5-anhydro-2,4-dideoxy-2-(8-fluoro-7-methyl-6-(4-(1-methyl-1H-pyrazol-3-yl)benzyl)-4-oxo-2H-1,3-benzoxazin-3(4H)-yl)-L-threo-pentitol]						99	8.28
COc1ccc(Cc2cc3c(c(Cl)c2C)OCN([C@H]2COCC[C@@H]2O)C3=O)cn1 [Example 109, 1,5-anhydro-2-(8-chloro-6-((6-methoxypyridin-3-yl)methyl)-7-methyl-4-oxo-2H-1,3-benzoxazin-3(4H)-yl)-2,4-dideoxy-L-threo-pentitol]						97	8.24
C=Cc1ccc(Cc2cc3c(c(C)c2C)OCN([C@H]2COCC[C@@H]2O)C3=O)cn1 [Example 110, 1,5-anhydro-2,4-dideoxy-2-(7,8-dimethyl-4-oxo-6-((6-vinylpyridine-3-yl)methyl)-2H-1,3-benzoxazin-3(4H)-yl)-L-threo-pentitol]						99	8.32
Cc1c(Cc2ccc(C#C[Si](C)(C)C)nc2)cc2c(c1C)OCN([C@H]1COCC[C@@H]1O)C2=O [Example 111, 1,5-anhydro-2,4-dideoxy-2-(7,8-dimethyl-4-oxo-6-((6-((trimethylsilyl)ethynyl)pyridin-3-yl)methyl)-2H-1,3-benzoxazin-3(4H)-yl)-L-threo-pentitol]						96	7.17
C#Cc1ccc(Cc2cc3c(c(C)c2C)OCN([C@H]2COCC[C@@H]2O)C3=O)cn1 [Example 112, 1,5-anhydro-2,4-dideoxy-2-(6-((6-ethynylpyridine-3-yl)methyl)-7,8-dimethyl-4-oxo-2H-1,3-benzoxazin-3(4H)-yl)-L-threo-pentitol]						99	8.04
Cc1c(Cc2ccc3nn(C)cc3c2)cc2c(c1C)OCN([C@H]1COCC[C@@H]1O)C2=O [Example 116, 1,5-anhydro-2,4-dideoxy-2-(7,8-dimethyl-6-((2-methyl-2H-indazol-5-yl)methyl)-4-oxo-2H-1,3-benzoxazin-3(4H)-yl)-L-threo-pentitol]						96	8.15
CCc1cc2c(cc1Cc1ccc(OC)nc1)C(=O)N([C@H]1COCC[C@@H]1O)CO2 [Example 118, 1,5-anhydro-2,4-dideoxy-2-(7-ethyl-6-((6-methoxypyridin-3-yl)methyl)-4-oxo-2H-1,3-benzoxazin-3(4H)-yl)-L-threo-pentitol]						116	7.33
Cc1cc2c(cc1Cc1ccc(Cl)nc1)C(=O)N([C@H]1CCCC[C@@H]1O)CO2 [Example 140, 6-((6-chloropyridin-3-yl)methyl)-3-((1S,2S)-2-hydroxycyclohexyl)-7-methyl-2,3-dihydro-4H-1,3-benzoxazin-4-one]						101	8.00
Cc1c(Cc2ccc(-n3nccn3)cc2)cc2c(c1C)OCN([C@H]1COCC[C@@H]1O)C2=O [Example 142, 1,5-anhydro-2,4-dideoxy-2-(7,8-dimethyl-4-oxo-6-(4-(2H-1,2,3-triazol-2-yl)benzyl)-2H-1,3-benzoxazin-3(4H)-yl)-L-threo-pentitol]						99	7.42
